Data from article PMC10247784, “Physiological activation of human and mouse bitter taste receptors by bile acids” (Communications Biology, 2023).

Molecular target: T1, mouse Tas2r105 (Mus musculus, UniProt Q9JKT4)
T1 construct: expressed in transfected cells; host or cells: HEK293T-Gα16gust44
T1 sequence (Q9JKT4 1-300): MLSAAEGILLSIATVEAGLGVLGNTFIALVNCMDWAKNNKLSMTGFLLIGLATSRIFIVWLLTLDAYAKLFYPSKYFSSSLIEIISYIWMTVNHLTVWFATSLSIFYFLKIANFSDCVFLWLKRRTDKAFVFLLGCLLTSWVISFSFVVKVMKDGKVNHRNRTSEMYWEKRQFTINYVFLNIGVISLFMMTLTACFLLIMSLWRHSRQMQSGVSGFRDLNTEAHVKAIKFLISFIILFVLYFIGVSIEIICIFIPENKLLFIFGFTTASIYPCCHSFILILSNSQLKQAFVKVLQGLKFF
Experiment: Calcium imaging assay (FLIPR), HEK293T-Gα16gust44 cells transfected with mouse Tas2r105
Format: cell-based

For `C[C@H](CCC(=O)O)[C@H]1CC[C@H]2[C@@H]3CC[C@@H]4C[C@H](O)CC[C@]4(C)[C@H]3C[C@H](O)[C@]12C` [Deoxycholic Acid, deoxycholic acid], the RLU (Time 0 s) was 0 RLU, the RLU (Time 2 s) was -7.941 RLU and the RLU (Time 4 s) was 8.425 RLU. The RLU (Time 6 s) was -2.576 RLU, the RLU (Time 8 s) was 14.8013 RLU and the RLU (Time 12 s) was -9.724 RLU. For the same compound, the RLU (Time 14 s) was -8.452 RLU, the RLU (Time 16 s) was 1.889 RLU and the RLU (Time 18 s) was -2.18 RLU. For the same compound, the RLU (Time 18.781 s) was -20.0658 RLU, the RLU (Time 20.781 s) was -17.0266 RLU and the RLU (Time 22.781 s) was -39.9091 RLU. The RLU (Time 24.781 s) was 0.577 RLU, the RLU (Time 26.781 s) was -0.6161 RLU and the RLU (Time 28.781 s) was 4.903 RLU. For the same compound, the RLU (Time 30.781 s) was -6.367 RLU, the RLU (Time 32.781 s) was -0.4375 RLU and the RLU (Time 34.781 s) was 4.775 RLU. For the same compound, the RLU (Time 36.781 s) was -8.6591 RLU, the RLU (Time 38.781 s) was -14.3055 RLU and the RLU (Time 40.781 s) was 9.418 RLU. The RLU (Time 42.781 s) was -11.7018 RLU, the RLU (Time 44.781 s) was -11.9371 RLU and the RLU (Time 46.781 s) was 4.597 RLU. The RLU (Time 48.781 s) was 27.0511 RLU, the RLU (Time 50.781 s) was -9.756 RLU and the RLU (Time 52.781 s) was 20.1786 RLU. The RLU (Time 54.781 s) was 19.4961 RLU, the RLU (Time 56.781 s) was 5.269 RLU and the RLU (Time 58.781 s) was 38.5167 RLU. For the same compound, the RLU (Time 60.781 s) was 24.5618 RLU, the RLU (Time 62.781 s) was 36.5379 RLU and the RLU (Time 64.781 s) was 21.9337 RLU. It also gave an RLU (Time 66.781 s) of 35.0054 RLU, an RLU (Time 68.781 s) of 34.4928 RLU and an RLU (Time 70.781 s) of 42.8161 RLU. It also gave an RLU (Time 72.781 s) of 53.1321 RLU, an RLU (Time 74.781 s) of 54.3186 RLU and an RLU (Time 76.781 s) of 66.018 RLU. The RLU (Time 78.781 s) was 45.8125 RLU, the RLU (Time 80.781 s) was 59.5249 RLU and the RLU (Time 82.781 s) was 62.7416 RLU. For the same compound, the RLU (Time 84.781 s) was 68.7087 RLU, the RLU (Time 86.781 s) was 90.9377 RLU and the RLU (Time 88.781 s) was 81.07 RLU. For the same compound, the RLU (Time 90.781 s) was 72.636 RLU, the RLU (Time 92.781 s) was 97.4301 RLU and the RLU (Time 94.781 s) was 105.551 RLU. For the same compound, the RLU (Time 96.781 s) was 100.341 RLU, the RLU (Time 98.781 s) was 103.309 RLU and the RLU (Time 100.781 s) was 117.485 RLU. The RLU (Time 102.781 s) was 130.646 RLU, the RLU (Time 104.781 s) was 147.286 RLU and the RLU (Time 106.781 s) was 108.305 RLU. For the same compound, the RLU (Time 108.781 s) was 142.084 RLU, the RLU (Time 110.781 s) was 147.264 RLU and the RLU (Time 112.781 s) was 118.273 RLU. It also gave an RLU (Time 114.781 s) of 167.002 RLU, an RLU (Time 116.781 s) of 149.721 RLU and an RLU (Time 118.781 s) of 160.265 RLU. The RLU (Time 120.781 s) was 160.404 RLU, the RLU (Time 122.781 s) was 193.86 RLU and the RLU (Time 124.781 s) was 179.508 RLU. For the same compound, the RLU (Time 126.781 s) was 161.679 RLU, the RLU (Time 128.781 s) was 158.603 RLU and the RLU (Time 130.781 s) was 180.418 RLU. For the same compound, the RLU (Time 132.781 s) was 180.045 RLU, the RLU (Time 134.781 s) was 177.913 RLU and the RLU (Time 136.781 s) was 194.619 RLU. It also gave an RLU (Time 137.562 s) of 177.939 RLU, an RLU (Time 143.562 s) of 180.507 RLU and an RLU (Time 149.562 s) of 188.634 RLU. It also gave an RLU (Time 155.562 s) of 199.157 RLU, an RLU (Time 161.562 s) of 206.349 RLU and an RLU (Time 167.562 s) of 208.396 RLU. For the same compound, the RLU (Time 173.562 s) was 211.199 RLU, the RLU (Time 179.562 s) was 201.145 RLU and the RLU (Time 185.562 s) was 195.662 RLU. For the same compound, the RLU (Time 191.562 s) was 211.659 RLU, the RLU (Time 197.562 s) was 209.959 RLU and the RLU (Time 203.562 s) was 191.361 RLU. For the same compound, the RLU (Time 209.562 s) was 208.831 RLU, the RLU (Time 215.562 s) was 204.186 RLU and the RLU (Time 221.562 s) was 168.101 RLU. For the same compound, the RLU (Time 227.562 s) was 191.058 RLU, the RLU (Time 233.562 s) was 174.166 RLU and the RLU (Time 239.562 s) was 185.934 RLU. The RLU (Time 245.562 s) was 176.351 RLU, the RLU (Time 293.562 s) was 157.143 RLU and the RLU (Time 299.562 s) was 147.048 RLU. For the same compound, the RLU (Time 305.562 s) was 138.332 RLU, the RLU (Time 311.562 s) was 135.378 RLU and the RLU (Time 317.562 s) was 138.908 RLU. For the same compound, the RLU (Time 323.562 s) was 128.724 RLU, the RLU (Time 329.562 s) was 125.639 RLU and the RLU (Time 335.562 s) was 124.441 RLU. It also gave an RLU (Time 341.562 s) of 111.174 RLU, an RLU (Time 347.562 s) of 105.923 RLU and an RLU (Time 353.562 s) of 95.2183 RLU. The RLU (Time 359.562 s) was 94.5256 RLU and the “Activation threshold concentration Tas2r105” value (p < 0.01 vs empty vector) was 10 µM.
